According to publication PMC5113665, “HF‐Free Boc Synthesis of Peptide Thioesters for Ligation and Cyclization” (Angewandte Chemie (International Ed. in English), 2016):
Non-standard residues stand in square brackets, D forms with d. Residues, ends and D or L forms follow the SMILES beside them. Phe(4-F) = N[C@@H](Cc1ccc(F)cc1)C(=O)O; d2Nal = N[C@H](Cc1ccc2ccccc2c1)C(=O)O; dNle = CCCC[C@@H](N)C(=O)O

Molecular target: T1, KRAS-GTPγS (Homo sapiens, UniProt P01116)
T1 construct: proteins (amino acids 1-185) were; GST (N, cleaved yes); made in house; host or cells: Escherichia coli BL21
T1 sequence (P01116 1-185 isoform P01116-2): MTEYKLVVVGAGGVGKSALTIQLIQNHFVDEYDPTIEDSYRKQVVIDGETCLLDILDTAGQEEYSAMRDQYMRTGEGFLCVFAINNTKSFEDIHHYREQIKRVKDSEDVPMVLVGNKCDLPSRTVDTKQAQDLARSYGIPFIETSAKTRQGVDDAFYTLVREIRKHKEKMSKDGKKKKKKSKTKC
Experiment: Microscale thermophoresis binding to labeled KRAS-GTPγS
Settings: 25 °C, NT-647 labelled protein, GTPγS-loaded, average of three measurements, read-out: affinity for labeled KRAS-GTPγS
Description: Cyclization in acetonitrile in the presence of an aqueous imidazole solution gave good results (Figure S23, SI). […] The binding was characterized by microscale thermophoresis studies (Figure 4 D).
VI. Biological analysis of Cyclorasin 9A5
Protein Expression and Purification material and methods:
Human wt-K-Ras and oncogenic K-Ras_G12V proteins (amino acids 1-185) were cloned in pGEX-6P-1 vector that encodes a glutathione S-transferase (GST) tag at the N-terminal of the expressed protein. The constructs were transformed in Escherichia coli BL21 cells – the cells were grown in Luria Broth (LB) media in the presence of 0.1 mg mL-1 ampicillin at 37 °C to an OD 700 then induced by the addition of 0.1 mM IPTG. The bacterial culture was then incubated overnight at 18 °C and harvested the second day by centrifugation. […]
Microscale thermophoresis (MST) measurements were performed using a NanoTemper Monolith™ NT.115 instrument (NanoTemper Technologies GmbH, München, Germany). […] Labeling levels (generally in the range 0.3-0.4 dye molecules per protein) were determined using calculated extinction coefficients and e647 = 250,000 M-1cm-1 for the dye concentration. […]
GTPγS (B) and K-Ras-G12V_ GDP (D). The Kd values for each interaction were calculated as an average of three measurements. […]

Structure (SMILES): CCCC[C@H]1NC(=O)[C@H](Cc2ccc(F)cc2)NC(=O)[C@H](CCCNC(=N)N)NC(=O)[C@@H](Cc2ccc3ccccc3c2)NC(=O)[C@H](CCCNC(=N)N)NC(=O)[C@H](CCCNC(=N)N)NC(=O)[C@H](CCCNC(=N)N)NC(=O)[C@@H](C)NC(=O)[C@H]([C@@H](C)O)NC(=O)[C@H](Cc2c[nH]c3ccccc23)NC(=O)[C@H](CCC(N)=O)NC1=O [cyclorasin 9A5] (cyclo(WT[dA]RRR[d2Nal]R[Phe(4-F)][dNle]Q))
- Kd: 600 nM
